Where two headings read alike, the source gives them in different places. One block for each compound: values may come before it.
What was measured:
Human LPA1 = molecular target: T1, Human LPA1 (Homo sapiens, UniProt Q92633); test: Calcium-mobilization assay (FURA-2), human LPA1 transfected cells; format: cell-based; settings: mean; for EC50: read-out: EC50
T1 construct: expressed in transfected cells; host or cells: mouse embryonic fibroblasts (MEF)
Description: (§1) We investigated structure-activity relationships across species, LPAR subtypes and between Rx100 and two known process impurities encountered in manufacture: Rx103 (‘E’ isomer) and Rx200 (oleyl phosphate and impurity, which can be an Rx100 degradant along with oleyl alcohol). Rx100, Rx103, Rx200 and native LPA were investigated at different human LPAR subtypes. In addition, the activity of these compounds was evaluated at LPA2 receptors from the rhesus, rat and mouse species. Human LPA1/2/3 subtypes were transfected into mouse embryonic fibroblasts (MEF) or rat hepatoma cells (RH7777)—both of which are normally non-responsive or null to LPA. Human LPA4 was transfected into Chinese hamster ovary (CHO) cells and LPA5 into the B103 neuroblastoma cell line. […] The B103 rat neuroblastoma cell line is endogenously nonresponsive to LPA but expresses heterologous LPA5 receptors well. […] LPAR activation elicits a G-protein-mediated transient rise in intracellular calcium level that is proportional to the concentration of LPA applied. The intracellular calcium level was quantified by the calcium-selective fluorescent indicator FURA-2 (e.g., increased intracellular calcium surge=increased fluorescence).

[1] = molecular target: T2, LPA2 receptors from the mouse (Mus musculus, UniProt Q9JL06); test: Calcium-mobilization assay (FURA-2), mouse LPA2; format: cell-based; settings: LPA2 DKO MEF, mouse, mean
T2 construct: expressed in transfected cells
Description: as §1

[2] = molecular target: LPA2 receptors from the rhesus (Macaca mulatta, UniProt I2CXV3); test: Calcium-mobilization assay (FURA-2), rhesus LPA2; format: cell-based; settings: LPA2 DKO MEF, rhesus, mean
Description: as §1

[3] = molecular target: LPA2 receptors from the rat (Rattus norvegicus, UniProt A0ABK0LT65); test: Calcium-mobilization assay (FURA-2), rat LPA2; format: cell-based; settings: LPA2 DKO MEF, rat, mean
Description: as §1

Control CHO = test: Calcium-mobilization assay, untransfected Control CHO cells; format: cell-based, Chinese hamster; settings: Control CHO (untransfected; endogenously expresses LPA1)
Description: as §1

[4] = Characterization of scaled-up Rx100.L-Lysine salt (XRPD, DSC, TGA, 1H NMR, Karl Fischer, optical microscopy); format: physicochemical; settings: scaled-up lot 1980-18-1
Description: The Rx100.L-Lysine salts were dried overnight under vacuum at 35° C. and then characterized by XRPD, DSC, TGA, ^1HNMR, Karl Fischer (KF), optical microscopy and moisture sorption assays.
Ratio of Rx-100 to L-Lysine in the salt was calculated based on the ^1HNMR integration ratio of set-A protons to set-B protons of the salt. Set-A protons are from Rx-100 part of the molecule and set-B protons are from L-Lysine part of the molecule. These two set of protons were selected because they are very well separated from rest of the protons in the ^1HNMR of the molecule. As shown in the molecular scheme in FIG. 39, set-A protons correspond to two olefinic protons of Rx100 and appear at […] in the ^1H NMR. In contrast, set-B protons correspond to methylene of lysine part and appear at […]. Comparison of ^1H NMR integration values for set-A and set-B protons indicates the ratio of Rx100 to lysine as 1:1.5.
The exhibition of birefringence observed by optical microscopy confirmed the crystallinity observed by XRPD

[5] = Gravimetric moisture sorption analysis, with XRPD afterwards; format: physicochemical; settings: lot 1980-18-1; 95% RH; reversible
Description: Moisture sorption analysis of the Rx100.L-Lysine salt was performed by equilibrating the sample at 25° C. and 50% RH to simulate ambient lab conditions. Humidity then decreased to 0% RH, increased from 0 to 95% RH, reduced from 95 to 0% RH, increased from 0 to 95% RH and then decreased from 95 to 50% RH.

Beagle dogs = test: Single-dose subcutaneous toxicity in dogs; format: in vivo; settings: 1 mL/kg of a 6-mg/mL concentration of L-lysine; same animals
From the text: One group of one male and one female Beagle dogs received single escalating subcutaneous doses of Rx100.Lysine at 10 and 1 (female)/1.52 (male) mg/kg. […] Parameters evaluated included clinical signs, body weight, and gross pathology. The male and female dog survived until scheduled necropsy on Day 15. Administration of Rx100 had no effect on body weight or general health of the animals. Noteworthy clinical observations were confined to skin and behavior effects. Both animals scratched at the dose site, likely contributing to observations of redness at the dose site. Swelling and a thickened/raised area were also observed during the observation period. Clinical observations were sufficient to warrant the injection of diphenhydramine. […] Following injection of the L-lysine component of the formulation at an independent site, redness, scratching, or swelling was not seen.

[6] = Short term (24 hour) slurry tests, XRPD of wet and dried solids; format: physicochemical; settings: 24 hour slurry; Water; one cell for 25° C. and 50° C.; starting form A
Description: Second, short term slurry tests were performed. Rx100.L-Lysine salt was slurried for a minimum of 24 hours in 15 different solvent systems at two different temperatures (25 and 50° C.) in an attempt to provide information for crystallization experiments and design of polymorph screening experiments. A 48 position Chemglass reaction block was used for heating and stirring the slurries which were in 2 mL HPLC vials. After the due time, vials were centrifuged and the wet solids were used for X-ray diffraction. […]

[7] = Rx100 salt screening (solid formation, XRPD wet/dry, filterability, exposure to RH > 90%); settings: for Filterability / Crystallinity / Polymorphic behavior: Rx100 salt formed with the named base; for Crystallinity / Polymorphic behavior: XRPD; for Solid upon evaporation (Y/N) / All solvents were evaporated to get a gel: stage 3, 1.05 eq, L-lysine 2.00 eq; for Solid upon evaporation (Y/N): 35 mg Rx100 free acid + base (label = base); for All solvents were evaporated to get a gel: label = base, nature/filterability of the solid; for ON PLATE / XRPD, wet: stage 2 round 2, Rx100 free acid + 1 eq base (label = base)
Description: We designed a complex and unconventional screening regime to screen for Rx100 crystalline salts. […] The screening regime is described as follows.
Rx100.FA in the form of a viscous liquid and eighteen counter ions were used as starting materials. These counter ions are listed and numbered in Table 4. The numbers will be used for grouping the resulting solids. The screening was performed in three stages.
Stage one (1) included screening 11 counter ions: sodium hydroxide, ammonium hydroxide, ethylenediamine, diethylamine, tromethamine (Tris), hydroxyethyl morpholine, benzathine, dimethylamino ethanol, L-Arginine, L-Lysine, L-Histidine. […] In stage 1, we performed three rounds of experiment.
In the first round of experiment, four (4) solvent systems, i.e., isopropyl alcohol (IPA), diethyl ether (DEE), IPA:water (a mixture at a volume ratio of 95:5) and tetrahydrofuran (THF), were used. Thus in this first round of screening, 44 individual base-acid reactions were conducted in 44 vials.
First, Rx100.FA and each of the bases were mixed in a vial. […] In each of the 44 vials, 211.1 μL of the prepared liquid, which was equivalent to about 35 mg of Rx100.FA, was first dispensed. Then, one equivalent (molar) of each of the 11 bases was dispensed in its corresponding vial. For example, the base sodium hydroxide was added to vials 1, 12, 23 and 34. Similarly, L-histidine was added to vials 11, 22, 33 and 44. Observations were recorded upon addition of the bases in to Rx100.FA.
Second, the solvent in each mixture was depleted. All vials containing the mixtures of Rx100.FA and each of the bases were left under moderate vacuum and nitrogen bleed at room temperature overnight to evaporate the solvent. The vials were then kept under full vacuum for about an hour to make sure the solvents (ethanol and water) are evaporated. Observations on formation of solid upon evaporation were recorded.
Third, solvents were added in each vial to induce solid formation. In each vial, a stir bar and one of the four selected solvents (each 5 volumes with respect to the Rx100.FA) were added. The vials were then capped. IPA was added to the first set of 11 vials (1-11), DEE added to the second set of 11 vials (12-22), IPA:water added to the third set of 11 vials (23-33), and THF added to the fourth set of 11 vials (34-44). The vials were left at room temperature while stirring for at least 5 hours. Observations were recorded.
The first set of XRPD analyses were recorded as “wet” samples. The solids were dried under vacuum for 1 hour and at room temperature followed by XRPD as “dry” sample. The dry solid was then exposed to relative humidity of more than 90% overnight followed by XRPD analysis. For XRPD naming, a number and a letter were used. The number refers to the counter ion and the letter refers to the chronological discovered XRPD pattern of that particular salt.
In the second round of experiment of stage one, another four (4) solvent systems, i.e., methanol (MeOH), tert-Butyl methyl ether (tBME), ethyl acetate and toluene, were used in the same 44 vials as used in the first round experiment. The solvents in all 44 vials from the first round were evaporated to dryness under vacuum and nitrogen bleed. The 4 new solvents were then added into the vials. Methanol was added to the first set of 11 vials (1-11), tBME added to the second set of 11 vials (12-22), Ethyl acetate added to the third set of 11 vials (23-33), and Toluene added to the fourth set of 11 vials (34-44). The same procedure as in the first round of experiment was followed for these new solvents and samples were taken for XRPD analysis.
In the third round of experiment, effect of base equivalence was assessed. […] After addition of the extra base, the previous solvent was evaporated and new solvents added.

T1 sequence (Q92633 whole entry): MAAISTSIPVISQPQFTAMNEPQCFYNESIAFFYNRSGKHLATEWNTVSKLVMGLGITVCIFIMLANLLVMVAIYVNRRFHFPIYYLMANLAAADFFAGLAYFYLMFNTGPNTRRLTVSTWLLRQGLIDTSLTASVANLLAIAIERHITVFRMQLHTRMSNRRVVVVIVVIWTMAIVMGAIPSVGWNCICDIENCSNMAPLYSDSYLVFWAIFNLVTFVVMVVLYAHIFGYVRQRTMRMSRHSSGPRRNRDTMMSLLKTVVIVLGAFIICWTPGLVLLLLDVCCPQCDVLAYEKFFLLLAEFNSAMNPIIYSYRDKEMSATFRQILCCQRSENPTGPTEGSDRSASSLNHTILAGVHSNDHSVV
T2 sequence (Q9JL06 whole entry): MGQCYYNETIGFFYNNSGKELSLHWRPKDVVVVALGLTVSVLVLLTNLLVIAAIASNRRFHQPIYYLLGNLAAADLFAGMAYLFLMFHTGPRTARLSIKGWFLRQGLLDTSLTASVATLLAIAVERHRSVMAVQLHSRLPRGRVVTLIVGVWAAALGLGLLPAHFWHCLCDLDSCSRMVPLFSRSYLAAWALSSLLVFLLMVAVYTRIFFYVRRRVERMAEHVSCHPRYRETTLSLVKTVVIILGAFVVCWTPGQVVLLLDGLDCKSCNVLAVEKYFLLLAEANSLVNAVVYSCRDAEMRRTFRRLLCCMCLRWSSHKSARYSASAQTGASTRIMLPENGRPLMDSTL
LPA2 receptors from the rhesus, sequence (I2CXV3 1-351): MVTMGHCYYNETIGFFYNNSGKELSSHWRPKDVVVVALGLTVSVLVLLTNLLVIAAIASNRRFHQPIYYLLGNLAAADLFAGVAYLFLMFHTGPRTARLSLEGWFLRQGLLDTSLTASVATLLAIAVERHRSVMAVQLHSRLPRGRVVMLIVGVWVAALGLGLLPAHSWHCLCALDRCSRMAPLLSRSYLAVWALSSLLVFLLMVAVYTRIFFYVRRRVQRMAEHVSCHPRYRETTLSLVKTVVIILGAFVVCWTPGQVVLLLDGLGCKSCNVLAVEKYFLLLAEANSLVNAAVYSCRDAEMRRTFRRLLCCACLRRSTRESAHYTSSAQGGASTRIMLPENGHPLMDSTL
LPA2 receptors from the rat, sequence (A0ABK0LT65 1-348): as the sequence (Q9JL06 whole entry) above, with A153V, A189V, Y211F, M310T, S316H, R321H, A324S, Q327R, R341H counted along it

Emax (% of LPA) (Human LPA1; LPA1 DKO MEF, human): 100 % of LPA
EC50 (Human LPA1; LPA1 DKO MEF, human): 354 nM
Emax (% of LPA) (Human LPA1; LPA1 RH7777, human): 100 % of LPA
EC50 (Human LPA1; LPA1 RH7777, human): 28 nM
Emax (% of LPA) [1]: 100 % of LPA
EC50 ([1]; read-out: EC50): 4.4 nM
Emax (% of LPA) [2]: 100 % of LPA
EC50 ([2]; read-out: EC50): 1.3 nM
Emax (% of LPA) [3]: 100 % of LPA
EC50 ([3]; read-out: EC50): 1.7 nM
Compound: lysophosphatidic acid [LPA, reference compound]
Emax (% of LPA) (Control CHO): 12%
EC50 (Control CHO; read-out: EC50): 605 nM

Compound: CCCCCCCC/C=C\CCCCCCCCOP(O)(O)=S.NCCCC[C@H](N)C(=O)O [Rx100. L-Lysine salt]
KF [Wt % water] [4]: 1.8 Wt % water
Optical Microscopy [4]: Birefringent
TGA [% Wt. loss] [4]: 1.1 % Wt. loss
XRPD [Form] [4]: Crystalline
Moisture Sorption [Wt. % at 95% RH] [5]: 20.6 Wt. %

Compound: NCCCC[C@H](N)C(=O)O [L-lysine component, L-lysine]
tolerability of subcutaneous injection (Beagle dogs): well tolerated

Compound: CCCCCCCC/C=C\CCCCCCCCOP(O)(O)=S.NCCCC[C@H](N)C(=O)O [Rx100. L-Lysine Salt]
Resulting Form [6]: Dissolved

Compound: NCCCC[C@@H](N)C(=O)O [D-Lysine]
Filterability [7]: no
Crystallinity [7]: yes
Polymorphic behavior [7]: Polymorphic on XRPD
Solid upon evaporation (Y/N) [7]: Gel
All solvents were evaporated to get a gel ([7]; solvent MeOH:Water [9:1]): Greasy.
All solvents were evaporated to get a gel ([7]; solvent MeOH): Greasy.

Compound: [K+].[OH-] [KOH]
ON PLATE ([7]; Ethyl acetate): Greasy
ON PLATE ([7]; IPA:water (1:1)): Pasty

Compound: Ca(OH)2
XRPD, wet ([7]; Ethyl acetate): Calcium
XRPD, wet ([7]; IPA:water (1:1)): Calcium

Filterability [7]: yes
Crystallinity [7]: yes
Polymorphic behavior [7]: Multiple patterns on XRPD
Solid upon evaporation (Y/N) [7]: Gel
All solvents were evaporated to get a gel ([7]; solvent MeOH:Water [9:1]): Greasy.
All solvents were evaporated to get a gel ([7]; solvent MeOH): Greasy.
Compound: Piperazine

Compound: L-Arginine
Filterability [7]: yes*
Crystallinity [7]: yes
Polymorphic behavior [7]: Greasy on XRPD

Compound: [K+] [Potassium]
Filterability [7]: no
Crystallinity [7]: yes
Polymorphic behavior [7]: Polymorphic on XRPD

From patent US20170226139A1, “CRYSTALLINE SALTS OF (Z)-O-OCTADEC-9-EN-1-YL O,O-DIHYDROGEN PHOSPHOROTHIOATE” (priority 2013, published 2017)
